These results are taken from patent US7807381B2, “Methods for assessing CDK5 activation and function” (The Board of Regents of the University of Texas System, priority 2007, dated 2010).

One assay deals with Cdk5 sites. The assay is described as follows: Quantitative immunoblot of Cdk5-site phosphorylation in acute striatal slices incubated with NMDA. In kind it is cell-based. The settings on record: NMDA at doses and times indicated, n=3-12. The protocol:
(§1) FIGS. 5A-B—NMDA receptor activation inhibits Cdk5 and the cytoplasmic domain is a Cdk5 inhibitor. (FIG. 5A) Reduction in phosphorylation of three Cdk5 sites by NMDA. Quantitative immunoblot analyses is shown of acute striatal slices incubated with NMDA for the doses and times indicated, n=3-12. *p<0.05; **p<0.01 vs. control, one-way ANOVA with Dunnett's multiple comparison test. (FIG. 5B) Inhibition of Cdk5-dependent phosphorylation of inhibitor-1 by NR2B as assessed by time-course (top), dose-response (middle), and Line-Weaver Burke (bottom) analyses of in vitro phosphorylation reactions conducted in the presence of the indicated inhibitors or control proteins.
To determine if these observations were related, the inventors conducted in vitro phosphorylation reactions with Cdk5 and a test substrate, protein phosphatase inhibitor-1. […] Kinetic analysis confirmed that the NR2B receptor cytoplasmic domain functions as a potent and selective inhibitor of Cdk5 (IC50˜4 μM) and indicated a noncompetitive inhibition mechanism. […] These new data further confirm that NR2B can block Cdk5 activity, and further, that these interactions may be targeted for disruption so that Cdk5 may be uncoupled from NMDA receptors.
(In general: A western blot detects proteins with antibodies after separation by electrophoresis.)

For another assay, the target named is Cdk5 (Homo sapiens, UniProt Q00535). The assay is described as follows: in vitro phosphorylation reactions with Cdk5 and test substrate protein phosphatase inhibitor-1. The settings on record: preliminary data. In kind it is biochemical. The protocol:
as §1
To determine if these observations were related, the inventors conducted in vitro phosphorylation reactions with Cdk5 and a test substrate, protein phosphatase inhibitor-1. […] Kinetic analysis confirmed that the NR2B receptor cytoplasmic domain functions as a potent and selective inhibitor of Cdk5 (IC50˜4 μM) and indicated a noncompetitive inhibition mechanism. […]
Cdk5 phosphorylation activity assays may generally comprise ^32P-incoporation into substrates as determined by phosphorimager analysis. Alternatively, phosphorylation may be detected by either Western blot or ELISA using a control Cdk5 substrate and a phosphorylation state-specific antibody to a Cdk5 phosphorylation site on the substrate. […]

Chain of Cdk5 (Q00535 whole entry, species assumed): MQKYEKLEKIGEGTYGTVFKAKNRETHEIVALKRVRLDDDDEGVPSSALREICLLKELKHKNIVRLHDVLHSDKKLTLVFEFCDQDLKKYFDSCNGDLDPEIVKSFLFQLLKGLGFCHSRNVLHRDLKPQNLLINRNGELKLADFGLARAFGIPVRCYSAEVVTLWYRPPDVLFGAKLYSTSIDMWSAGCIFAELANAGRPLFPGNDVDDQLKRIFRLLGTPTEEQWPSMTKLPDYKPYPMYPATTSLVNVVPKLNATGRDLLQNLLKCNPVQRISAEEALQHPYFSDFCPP

Turning to `CN[C@H](CC(=O)O)C(=O)O` [NMDA], in the assay with Cdk5 sites, the “phosphorylation of three Cdk5 sites” value is “Reduction”.

In the case of “peptide encompassing amino acid residues 1101-1130 of NR2B: a peptide encompassing amino acid residues 1101-1130 of NR2B (EFDEIELAYRRRPPRSPDHKRYFRDKEGLR; UniProt Q13224 1101-1130, looked up, fragment)”, the “inhibition of Cdk5 (qualitative)” value in the assay with Cdk5 is “effective inhibitor”.
